Laboratory results taken from PubChem BioAssay AID1963983 (Molecular Pharmacology Branch, DTP, NCI, 2024).

System: 186277-243-T-J2-PDC multi-cell spheroid viability
Experiment: Anticancer human tumor 186277-243-T-J2-PDC patient-derived colon adenocarcinoma cell line growth inhibition [PI3K]
Settings: for IC50: curve of first compound; for viability, T/C: stronger effect = lower value
Description: Combinatorial screen of targeted agents with the PI3K inhibitors inavolisib, alpelisib, duvelisib, and copanlisib in multi-cell type tumor spheroids
A high-throughput screen of multi-cell type tumor spheroids was designed to identify active combinations of targeted small molecules and PI3K pathway inhibitors. Complex spheroids include a stromal component modeled by human endothelial cells (HUVEC) and fibroblasts modeled by human mesenchymal stem cells (MSCs). The concentration ranges selected for each drug and investigational agent were based upon clinically achievable concentrations if the clinical Cmax of the agent was known.
Compounds. The drugs and investigational agents: inavolisib (NSC800729), alpelisib (NSC765974), duvelisib (NSC772469), copanlisib (NSC816437), ipatasertib (NSC767898), afuresertib (NSC778305), talazoparib (NSC767125), sapanisertib (NSC764658), selumetinib (NSC741078), tovorafenib (DAY101, NSC766906), vemurafenib (NSC761431), ravoxertinib (NSC781343), sotorasib (NSC818433), MRTX1133 (NSC 836407), abemaciclib (NSC 768073), palbociclib (NSC758247), venetoclax (NSC 766270), SY5609 (NSC837396), enzalutamide (NSC755605), and darolutamide (NSC825331), were obtained from the National Cancer Institute (NCI) Developmental Therapeutics Program Chemical Repository. The FDA-approved anticancer drug set is available from the NCI Developmental Therapeutics Program. […] The stock solutions were prepared in dimethyl sulfoxide (DMSO, Sigma-Aldrich, St. Louis, MO, cat. D2650) at 800-fold the tested concentration and stored at -70 degrees C prior to their use. All drugs and investigational agents were tested over a range starting from a high concentration at or near the clinical Cmax and decreasing in half-log increments. If the clinical Cmax for an agent had not been determined, the highest concentration tested was 10 microM.
Cell Culture. All cells were maintained in an incubator at 37 degrees C and 5% CO2 with 95% humidity. The PDC lines were cultured according to standard operating procedures established by the NCI PDMR (https://pdmr.cancer.gov/sops/default.htm). All PDCs were thawed and cultured in Matrigel-coated flasks prepared with a working solution of 1X Ham's F-12 nutrient mix, without supplementation (Invitrogen, Waltham, MA, cat. 11765054), 100 U/mL penicillin-streptomycin (Invitrogen, cat. 15140122), and 2.5% Matrigel (Corning Inc., Corning, NY, cat. 354248) for the first three passages. The 354836-022-R-J1-PDC, 475296-252-R-J1-PDC, and 997726-040-R-J2-PDC lines were cultured in 6A media, which includes advanced DMEM/F-12 (Thermo Fisher Scientific, cat. 12634028), 10 mM HEPES (Thermo Fisher Scientific, cat. 15630080), 1X GlutaMAX supplement (Thermo Fisher Scientific, cat. 35050061), 0.1 mg/mL primocin (InvivoGen, San Diego, CA, cat. ant-pm-2), 10% defined fetal bovine serum, heat inactivated (HyClone Laboratories Inc., Logan, UT, cat. SH30070.03HI), 50% L-WRN conditioned media (ATCC, cat. CRL-3276), 1.25 mM N-Acetyl-L-cysteine (Sigma-Aldrich, cat. A9165), 10 mM nicotinamide (Sigma-Aldrich, cat. N0636), 1X B-27 supplement (Thermo Fisher Scientific, cat. 17504044), 1X N-2 supplement (Thermo Fisher Scientific, cat. 17502048), and 10 microM Y-27632 dihydrochloride (Tocris Bioscience, Bristol, United Kingdom, cat. 1254). The 624824-186-R-J2-PDC line was cultured in 6C/Colon 1B media, which includes all 6A media components plus 50 ng/mL human EGF recombinant protein (Thermo Fisher Scientific, cat. PHG0311). […]

[1] = second compound 0.0316 µM, first compound 0.0316 µM
[2] = second compound 0.0316 µM, first compound 0.1 µM
[3] = second compound 0.0316 µM, first compound 0.316 µM
[4] = second compound 0.0316 µM, first compound 1 µM
[5] = second compound 0.0316 µM, first compound 3.16 µM
[6] = second compound 0.0316 µM, first compound 10 µM
[7] = second compound 0.1 µM, first compound 0.0316 µM
[8] = second compound 0.1 µM, first compound 0.1 µM
[9] = second compound 0.1 µM, first compound 0.316 µM
[10] = second compound 0.1 µM, first compound 1 µM
[11] = second compound 0.1 µM, first compound 3.16 µM
[12] = second compound 0.1 µM, first compound 10 µM
[13] = second compound 0.316 µM, first compound 0.0316 µM
[14] = second compound 0.316 µM, first compound 0.1 µM
[15] = second compound 0.316 µM, first compound 0.316 µM
[16] = second compound 0.316 µM, first compound 1 µM
[17] = second compound 0.316 µM, first compound 3.16 µM
[18] = second compound 0.316 µM, first compound 10 µM
[19] = second compound 1 µM, first compound 0.0316 µM
[20] = second compound 1 µM, first compound 0.1 µM
[21] = second compound 1 µM, first compound 0.316 µM
[22] = second compound 1 µM, first compound 1 µM
[23] = second compound 1 µM, first compound 3.16 µM
[24] = second compound 1 µM, first compound 10 µM
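Also: spheroids exposed to compounds for seven days before viability reading.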
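For viability, T/C in this document: 100% = DMSO vehicle control viability.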

CCCS(=O)(=O)Nc1ccc(F)c(C(=O)c2c[nH]c3ncc(-c4ccc(Cl)cc4)cc23)c1F + CC(Nc1ccc2c(c1)OCCn1cc(N3C(=O)OCC3C(F)F)nc1-2)C(N)=O
IC50 (second compound 0.00316 µM): 4.74 µM | IC50 (second compound 0.01 µM): 5.43 µM | IC50 (second compound 0.0316 µM): 5.34 µM | IC50 (second compound 0.1 µM): 5.03 µM | IC50 (second compound 0.316 µM): 4.57 µM | IC50 (second compound 1 µM): 4.11 µM | viability, T/C (second compound 0.00316 µM, first compound 0.0316 µM): 108% | viability, T/C (second compound 0.00316 µM, first compound 0.1 µM): 91.5% | viability, T/C (second compound 0.00316 µM, first compound 0.316 µM): 92.4% | viability, T/C (second compound 0.00316 µM, first compound 1 µM): 83.9% | viability, T/C (second compound 0.00316 µM, first compound 3.16 µM): 77.4% | viability, T/C (second compound 0.00316 µM, first compound 10 µM): 6.03% | viability, T/C (second compound 0.01 µM, first compound 0.0316 µM): 118% | viability, T/C (second compound 0.01 µM, first compound 0.1 µM): 90.4% | viability, T/C (second compound 0.01 µM, first compound 0.316 µM): 83.8% | viability, T/C (second compound 0.01 µM, first compound 1 µM): 90.5% | viability, T/C (second compound 0.01 µM, first compound 3.16 µM): 89.9% | viability, T/C (second compound 0.01 µM, first compound 10 µM): 5.05% | viability, T/C [1]: 112% | viability, T/C [2]: 103% | viability, T/C [3]: 102% | viability, T/C [4]: 95.6% | viability, T/C [5]: 88.7% | viability, T/C [6]: 6.11% | viability, T/C [7]: 101% | viability, T/C [8]: 105% | viability, T/C [9]: 118% | viability, T/C [10]: 113% | viability, T/C [11]: 81.2% | viability, T/C [12]: 4% | viability, T/C [13]: 81% | viability, T/C [14]: 80.3% | viability, T/C [15]: 87.1% | viability, T/C [16]: 105% | viability, T/C [17]: 71.5% | viability, T/C [18]: 4.62% | viability, T/C [19]: 59% | viability, T/C [20]: 60.9% | viability, T/C [21]: 70.4% | viability, T/C [22]: 65.1% | viability, T/C [23]: 63.2% | viability, T/C [24]: 5.04%

CC1(C)CCC(Nc2ncc(C(F)(F)F)c(-c3c[nH]c4c(P(C)(C)=O)c(C#N)ccc34)n2)CN1 (centres undefined) + CC(Nc1ncnc2nc[nH]c12)c1cc2cccc(Cl)c2c(=O)n1-c1ccccc1
IC50 (second compound 0.0316 µM): 4.13 µM | IC50 (second compound 0.1 µM): 4.35 µM | IC50 (second compound 0.316 µM): 4.09 µM | IC50 (second compound 1 µM): 3.95 µM | IC50 (second compound 3.16 µM): 4 µM | IC50 (second compound 10 µM): 0.865 µM | viability, T/C [1]: 77.7% | viability, T/C [2]: 61.8% | viability, T/C [3]: 58% | viability, T/C [4]: 59.9% | viability, T/C [5]: 66.5% | viability, T/C [6]: 1.23% | viability, T/C [7]: 92.4% | viability, T/C [8]: 57.1% | viability, T/C [9]: 62% | viability, T/C [10]: 64.4% | viability, T/C [11]: 68.6% | viability, T/C [12]: 1.55% | viability, T/C [13]: 81.3% | viability, T/C [14]: 57.7% | viability, T/C [15]: 58.3% | viability, T/C [16]: 64.1% | viability, T/C [17]: 64.2% | viability, T/C [18]: 0.31% | viability, T/C [19]: 75.4% | viability, T/C [20]: 61% | viability, T/C [21]: 60.8% | viability, T/C [22]: 63% | viability, T/C [23]: 61.9% | viability, T/C [24]: 0.97% | viability, T/C (second compound 3.16 µM, first compound 0.0316 µM): 80.1% | viability, T/C (second compound 3.16 µM, first compound 0.1 µM): 69.1% | viability, T/C (second compound 3.16 µM, first compound 0.316 µM): 63.4% | viability, T/C (second compound 3.16 µM, first compound 1 µM): 67.2% | viability, T/C (second compound 3.16 µM, first compound 3.16 µM): 63% | viability, T/C (second compound 3.16 µM, first compound 10 µM): 0.64% | viability, T/C (second compound 10 µM, first compound 0.0316 µM): 72% | viability, T/C (second compound 10 µM, first compound 0.1 µM): 59.5% | viability, T/C (second compound 10 µM, first compound 0.316 µM): 55.1% | viability, T/C (second compound 10 µM, first compound 1 µM): 53.8% | viability, T/C (second compound 10 µM, first compound 3.16 µM): 30.2% | viability, T/C (second compound 10 µM, first compound 10 µM): 1.26%
